Values quoted from earlier work in US5214030A, “Calcitonin gene-related peptides for treating erectile dysfunctions” (priority 1989, dated 1993).

Test system: Cynomolgus monkey
Conditions: 1-2 intracavernosal injections per week over 12 months

COc1ccc(Cc2nccc3cc(OC)c(OC)cc23)cc1OC [papaverine]
findings in the erectile tissue: extensive fibrous formation in further parts of the erectile tissue
